{"source": "patent US20120315658A1", "about": "“AMELIORATION OF METABOLIC SYNDROME USING PHYSIOLOGICAL FUNCTIONS OF SPHINGOMYELIN SYNTHASE SMS2, OR SCREENING METHODS FOR AMELIORATING AGENTS” (Shionogi & Co., Ltd., priority 2009, published 2012)", "tested_on": "ZS2/SMS2 cells", "test": "Me beta CD sensitivity test with Myriocin, viable cell number by WST-8", "assay_type": "cell-based, mouse", "conditions": "for effect of added lipid on cell growth inhibitory effects caused by Myriocin: Myriocin + ceramide (10 microM) or sphingomyelin (15 microM)", "experimental": "1×10^6 MEF cells are washed, and resuspended in 1 ml of serum-free RPMI 1640 medium, and treated with an appropriate concentration of Me beta CD, and cultured in 5% CO2, 37 degrees Celsius for five minutes. After 2 ml of normal medium containing myriocin are added thereto, and the cells are cultured for additional 12 hours. A reagent for measuring viable cell number containing WST-8 (Nakalai Tesque) may be used to measure survival rate of the cells.\nMore specifically, ZS2/SMS2 cells prepared in Example 2 are placed in 48-well plate dish at 5000 cells/0.2 ml/well (N=3). For cell culture, 0.3% FCS/OPTIPRO SFM (GIBCO) was used. In this case, Myriocin (Final concentration 5 microM) is added, or alternatively, Myriocin+ceramide (10 microM) or Myriocin+sphingomyelin (15 microM) were added thereto. Me beta CD was added at the final concentration of 2 mM, and further cultured in 5% CO2, 37 degrees Celsius for sixteen hours. A reagent for measuring viable cell number containing WST-8 (DOJINDO) was added at 10 microliter/well and further cultured in 5% CO2, 37 degrees Celsius for one hour (WST assay). The viable cell numbers were counted according to the protocol. Y axis represents a numerical value when the average value is deemed to be 100% amongst the cases in the presence and absence of Myriocin, when Me beta CD is not placed therein."}
{"compound": "methyl-beta-cyclodextrin [Me beta CD]", "values": [{"measurement": "reduction of cell growth by Me beta CD", "setting": "2 mM Me beta CD, sixteen hours, no Myriocin", "value": "about 50%"}]}
{"compound": "sphingomyelin [SM]", "values": [{"measurement": "effect of added lipid on cell growth inhibitory effects caused by Myriocin", "setting": "2 mM Me beta CD", "value": "almost completely inhibited the cell growth inhibitory effects caused by Myriocin"}]}
{"compound": "CCCCCCC(=O)CCCCCC/C=C/C[C@@H](O)[C@H](O)[C@@](N)(CO)C(=O)O", "note": "[Myriocin]", "values": [{"measurement": "further reduction of cell growth by addition of Myriocin", "setting": "2 mM Me beta CD, sixteen hours, Myriocin printed as 2 mM", "value": "about 20%"}, {"measurement": "viable cell number, presence versus absence of Myriocin", "setting": "Me beta CD not placed therein, Myriocin 5 microM", "value": "not significant difference"}]}
{"compound": "ceramide", "values": [{"measurement": "effect of added lipid on cell growth inhibitory effects caused by Myriocin", "setting": "2 mM Me beta CD", "value": "almost completely inhibited the cell growth inhibitory effects caused by Myriocin"}]}
